Experimental findings from patent US10047051B2, “Substituted pyridines and method of use” (AbbVie S.á{acute over (.)}r.l., priority 2015, dated 2018) are described below.

SMILES strings stand for the structures.

In one test the target is T1, CFTR ΔF508 mutant (Homo sapiens, UniProt P13569, DEL508-508).
T1 construct: expressed in transfected cells; host or cells: CFBE41o- cells, adenoviral transduction
Kind of test: YFP-halide influx assay for the CFTR-ΔF508 mutation (CFBE41o- cells). Conditions: forskolin 10.67 μM; for EC50: from (1−F/F0) vs concentration plot. Format: cell-based. In outline: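 CFBE41o- cells transduced with adenovirus expressing CFTR ΔF508 and halide-sensitive YFP H148Q/I152L/F47L, then held 24 h at 27° C or with a CFTR modulator 24 h at 37° C. Iodide-induced quench recorded 2 min; EC50 from (1−F/F0) at 36 s versus concentration.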

Another test has as its target T2, CFTR G551D mutant (Homo sapiens, UniProt P13569, G551D).
T2 construct: expressed in transfected cells; host or cells: HEK293 cells, reverse transfection with plasmids
Put plainly: YFP-halide influx assay for the CFTR-G551D mutation (HEK293 cells). The following applies: forskolin 10.67 μM. Format: cell-based. In outline: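 HEK293 cells reverse-transfected with CFTR G551D and halide-sensitive YFP (H148Q/I152L/F47L), expressed 24 h at 37 °C. YFP fluorescence quenching recorded for 7 s after I⁻ injection. Response = 1−F/F0; EC50 derived from 1−F/F0 vs compound concentration.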

T1 sequence (P13569 with tags, fused parts or gaps DEL508-508): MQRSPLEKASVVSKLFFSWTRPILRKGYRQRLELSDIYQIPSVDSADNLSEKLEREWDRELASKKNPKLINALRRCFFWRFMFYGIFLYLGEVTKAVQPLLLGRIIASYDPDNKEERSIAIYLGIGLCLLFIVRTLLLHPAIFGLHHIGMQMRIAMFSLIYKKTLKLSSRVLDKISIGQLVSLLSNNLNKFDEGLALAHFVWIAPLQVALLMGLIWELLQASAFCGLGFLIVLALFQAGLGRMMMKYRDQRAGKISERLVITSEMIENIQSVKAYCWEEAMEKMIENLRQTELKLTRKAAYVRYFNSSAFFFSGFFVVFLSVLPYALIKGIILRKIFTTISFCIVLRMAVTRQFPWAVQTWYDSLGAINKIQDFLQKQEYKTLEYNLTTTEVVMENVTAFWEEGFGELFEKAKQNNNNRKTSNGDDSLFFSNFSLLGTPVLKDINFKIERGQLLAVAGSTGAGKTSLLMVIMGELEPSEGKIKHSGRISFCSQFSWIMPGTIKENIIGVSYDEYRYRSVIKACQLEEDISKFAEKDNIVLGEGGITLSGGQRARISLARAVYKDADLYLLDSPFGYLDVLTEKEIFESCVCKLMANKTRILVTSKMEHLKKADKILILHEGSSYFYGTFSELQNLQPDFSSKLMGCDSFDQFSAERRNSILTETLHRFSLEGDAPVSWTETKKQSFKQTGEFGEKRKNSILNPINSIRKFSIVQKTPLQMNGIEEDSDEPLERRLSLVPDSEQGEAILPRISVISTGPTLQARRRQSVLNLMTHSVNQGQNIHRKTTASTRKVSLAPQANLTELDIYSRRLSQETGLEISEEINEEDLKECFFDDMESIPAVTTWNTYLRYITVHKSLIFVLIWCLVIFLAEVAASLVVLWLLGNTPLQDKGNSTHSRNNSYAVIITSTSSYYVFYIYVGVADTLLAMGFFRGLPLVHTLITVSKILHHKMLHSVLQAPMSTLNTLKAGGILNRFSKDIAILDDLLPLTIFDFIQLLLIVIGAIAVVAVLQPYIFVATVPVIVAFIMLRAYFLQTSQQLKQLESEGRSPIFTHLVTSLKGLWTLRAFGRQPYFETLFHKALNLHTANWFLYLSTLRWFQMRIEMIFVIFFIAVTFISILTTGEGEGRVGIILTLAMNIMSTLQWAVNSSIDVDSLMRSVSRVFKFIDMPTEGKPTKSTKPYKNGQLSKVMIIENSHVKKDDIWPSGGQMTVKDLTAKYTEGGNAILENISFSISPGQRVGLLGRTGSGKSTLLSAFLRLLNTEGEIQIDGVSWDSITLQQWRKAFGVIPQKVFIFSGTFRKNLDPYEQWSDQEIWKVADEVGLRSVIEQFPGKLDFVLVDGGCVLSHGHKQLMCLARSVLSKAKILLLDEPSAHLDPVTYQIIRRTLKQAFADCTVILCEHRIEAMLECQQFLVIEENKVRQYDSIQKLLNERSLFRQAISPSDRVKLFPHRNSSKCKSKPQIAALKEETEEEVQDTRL
T2 sequence (P13569 whole entry G551D): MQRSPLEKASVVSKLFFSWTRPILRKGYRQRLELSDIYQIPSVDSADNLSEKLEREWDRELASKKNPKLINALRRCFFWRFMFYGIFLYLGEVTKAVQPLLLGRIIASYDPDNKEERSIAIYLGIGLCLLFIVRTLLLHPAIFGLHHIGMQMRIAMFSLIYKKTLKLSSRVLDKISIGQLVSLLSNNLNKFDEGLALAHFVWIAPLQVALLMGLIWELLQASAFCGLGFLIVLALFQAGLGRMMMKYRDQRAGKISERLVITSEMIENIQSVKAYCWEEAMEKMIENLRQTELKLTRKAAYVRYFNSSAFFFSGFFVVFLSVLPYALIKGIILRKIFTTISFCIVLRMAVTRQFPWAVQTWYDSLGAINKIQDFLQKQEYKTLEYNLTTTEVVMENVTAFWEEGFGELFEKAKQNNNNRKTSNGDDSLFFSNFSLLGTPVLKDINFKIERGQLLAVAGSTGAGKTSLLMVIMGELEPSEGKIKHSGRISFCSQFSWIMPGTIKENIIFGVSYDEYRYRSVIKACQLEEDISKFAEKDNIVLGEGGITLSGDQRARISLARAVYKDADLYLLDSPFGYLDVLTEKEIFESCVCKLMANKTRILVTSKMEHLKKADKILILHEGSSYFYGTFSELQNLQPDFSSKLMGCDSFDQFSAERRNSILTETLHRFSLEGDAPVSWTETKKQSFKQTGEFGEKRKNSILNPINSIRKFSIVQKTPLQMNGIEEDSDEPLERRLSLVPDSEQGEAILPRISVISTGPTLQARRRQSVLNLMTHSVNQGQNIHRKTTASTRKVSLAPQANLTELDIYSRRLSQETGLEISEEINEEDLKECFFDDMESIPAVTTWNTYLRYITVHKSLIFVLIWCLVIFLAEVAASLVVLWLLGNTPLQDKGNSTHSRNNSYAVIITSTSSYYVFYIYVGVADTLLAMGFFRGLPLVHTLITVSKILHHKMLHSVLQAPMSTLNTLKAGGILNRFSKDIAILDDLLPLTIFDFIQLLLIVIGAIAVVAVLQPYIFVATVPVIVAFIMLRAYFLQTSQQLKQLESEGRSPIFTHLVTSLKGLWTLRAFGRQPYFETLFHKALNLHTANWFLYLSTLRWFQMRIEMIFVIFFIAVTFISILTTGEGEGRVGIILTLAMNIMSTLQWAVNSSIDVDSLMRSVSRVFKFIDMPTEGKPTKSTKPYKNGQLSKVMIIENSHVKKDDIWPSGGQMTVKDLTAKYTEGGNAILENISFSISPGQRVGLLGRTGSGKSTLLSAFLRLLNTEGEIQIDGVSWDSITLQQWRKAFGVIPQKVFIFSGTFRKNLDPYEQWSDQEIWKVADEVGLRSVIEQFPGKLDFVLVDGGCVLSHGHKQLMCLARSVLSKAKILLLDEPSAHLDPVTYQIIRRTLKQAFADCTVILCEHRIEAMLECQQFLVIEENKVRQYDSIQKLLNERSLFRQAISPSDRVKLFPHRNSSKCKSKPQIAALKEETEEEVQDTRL

As to `COCCOc1nc(C(=O)NC[C@H](C)O)c(N)cc1S(=O)(=O)c1ccc(OC(F)(F)F)cc1` [Compound 288, 3-amino-N-[(2S)-2-hydroxypropyl]-6-(2-methoxyethoxy)-5-{[4-(trifluoromethoxy)phenyl]sulfonyl}pyridine-2-carboxamide], at CFTR ΔF508 mutant, the “% Activation” value was found to be 109.0% and a half-maximal effect (EC50) was put at 8.7 nM. Further, on CFTR G551D mutant, the “% Activation” value stood at 78.3% and the EC50 was more than 3330 nM.
The like results for `Nc1cc(S(=O)(=O)N2CC(F)(F)C2)cnc1C(=O)NCC(O)C(F)(F)F` (centres unmarked) [Compound 97, 3-amino-5-[(3,3-difluoroazetidin-1-yl)sulfonyl]-N-(3,3,3-trifluoro-2-hydroxypropyl)pyridine-2-carboxamide] were, in that order, 92.9%, 102 nM, 23.8% and more than 10000 nM.
The like results for `Nc1cc(S(=O)(=O)c2ccc(OC(F)(F)F)cc2)cnc1C(=O)NCC(O)C1CCOCC1` (centres unmarked) [Compound 35, 3-amino-N-[2-hydroxy-2-(tetrahydro-2H-pyran-4-yl)ethyl]-5-{[4-(trifluoromethoxy)phenyl]sulfonyl}pyridine-2-carboxamide] were, in that order, 110.4%, 84.7 nM, 78.7% and 2390 nM.
The like results for `Nc1cc(S(=O)(=O)c2ccc(C(F)(F)F)cc2F)cnc1C(=O)NCCO` [Compound 219, 3-amino-5-{[2-fluoro-4-(trifluoromethyl)phenyl]sulfonyl}-N-(2-hydroxyethyl)pyridine-2-carboxamide] were, in that order, 99.8%, 19.2 nM, 44.7% and 1050 nM.
Regarding `Nc1cc(S(=O)(=O)c2ccc(C(F)(F)F)cc2)cnc1C(=O)NCC(O)COCC1CC1` (centres unmarked) [Compound 131, 3-amino-N-[3-(cyclopropylmethoxy)-2-hydroxypropyl]-5-{[4-(trifluoromethyl)phenyl]sulfonyl}pyridine-2-carboxamide], on CFTR ΔF508 mutant, the “% Activation” value was 110.2% and the EC50 was determined as 12.8 nM. Besides, at CFTR G551D mutant, the “% Activation” value was found to be 68.6% and the 50% effective concentration (EC50) worked out at 817 nM.
Turning to `CCS(=O)(=O)c1cc(N)c(C(=O)NC[C@H](C)O)nc1C1CC1` [Compound 275, 3-amino-6-cyclopropyl-5-(ethylsulfonyl)-N-[(2S)-2-hydroxypropyl]pyridine-2-carboxamide], on CFTR ΔF508 mutant, the “% Activation” value worked out at 68.5% and the EC50 is more than 667 nM. For the same compound, at CFTR G551D mutant, the “% Activation” value is given as 4.2% and the concentration giving a half-maximal response (EC50) was more than 10000 nM.
The corresponding values for `CC1(C)CN(C(=O)c2ncc(S(=O)(=O)c3ccc(OC(F)(F)F)cc3F)cc2N)C1` [Compound 134, (3-amino-5-{[2-fluoro-4-(trifluoromethoxy)phenyl]sulfonyl}pyridin-2-yl)(3,3-dimethylazetidin-1-yl)methanone] are 101.6%, 43.5 nM, 76.8% and 1130 nM.
The corresponding values for `CC1(CCNC(=O)c2ncc(S(=O)(=O)c3ccc(OC(F)(F)F)cc3)cc2N)CC1` [Compound 124, 3-amino-N-[2-(1-methylcyclopropyl)ethyl]-5-{[4-(trifluoromethoxy)phenyl]sulfonyl}pyridine-2-carboxamide] are 104.0%, 100 nM, 57.0% and 824 nM.

By EC50 is commonly meant the midpoint of the concentration-response curve. A lower EC50 goes with an effect from little substance.
